Drawing on PubChem BioAssay (NCI), this text covers TGI and GI50 for twelve molecules.

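Five concentrations, 48 hours, 96-well plates. Abbreviation: GI50, concentration required for 50% inhibition of growth. Definition used: TGI = concentration required for complete inhibition of growth.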

Common to all, as to assay: growth of human tumour cells (NCI), 48 h
Assay [1] has as its system A549 NSCLC.
The test system of assay [2] is HOP-62 NSCLC.
Assay [3] has as its system HS 578T breast.
Assay [4] relates to MALME-3M melanoma.
Assay [5] relates to MDA-MB-435.
The test system of assay [6] is MOLT-4 leukemia.
Assay [7] concerns OVCAR-5 ovarian.
In assay [8] the test system is SK-MEL-2 melanoma.
For assay [9], the system named is SNB-75 CNS.
Assay [10] relates to T-47D breast.
The test system of assay [11] is U251 CNS.

As for `O=CN(O)CC(=O)O`, the TGI in assay [1], in [2], in assay [3], in assay [4], in [5] and in [6] was over 100 µM throughout. For the same molecule, the TGI in assay [7], in [8], in assay [9], in assay [10] and in [11] was over 100 µM in each case.
For `CC(C)(C)OC(=O)c1ccc(NCc2cc(O)ccc2O)cc1`, the TGI in assay [1] is over 89.4 µM; in assay [2], 41.3 µM; in assay [3], 18.6 µM; in [4] it was 3.99 µM; in assay [5], 16.1 µM; in assay [6], 11.2 µM. Moreover, the TGI in assay [7] came out at 21.9 µM; in assay [8], 18.8 µM; in assay [9], 18.4 µM; in [10], 2.57 µM; in [11] it was 9.32 µM.
Turning to `COc1ccc(/C=N/Nc2nc3ccccc3c(=O)n2-c2ccccc2)c(OCc2ccccc2)c1`, the TGI in assay [1], in assay [2], in assay [3], in [4], in [5] and in assay [6] was over 100 µM in each case. Moreover, the TGI in assay [7], in [8], in assay [9], in assay [10] and in assay [11] was over 100 µM throughout. The GI50 in assay [3] and in assay [9] was over 100 µM throughout.
With `Clc1cccc(C2ON=C(c3ccccc3)N2C23CC4CC(CC(C4)C2)C3)c1Cl` (centres undefined), the TGI in [1], in assay [2], in assay [3], in assay [4], in assay [5] and in [6] was over 10 µM in each case. The TGI in assay [7], in assay [8], in [9], in assay [10] and in assay [11] was over 10 µM throughout.
Turning to `CCOC(=O)c1ccc(C(=O)/C(C(=O)OC(C)(C)C)=C2\CCCN2C)n1C`, the TGI in assay [1], in [2], in assay [3], in assay [4], in assay [5] and in assay [6] was over 100 µM throughout. For the same molecule, the TGI is over 100 µM in [7]; over 100 µM in [8]; 77.8 µM in [9]; over 100 µM in assay [10]; over 100 µM in [11].
Consider `CC(C)(C)c1ccc2c(c1)OCc1n[nH]c(n1)COc1cc(C(C)(C)C)ccc1OCCOCCO2`, for which the TGI came to 14.3 µM in [1]; 19.2 µM in assay [2]; 9.16 µM in assay [3]; 7.62 µM in assay [4]; 11.5 µM in assay [5]; 17.6 µM in [6]. Further, the TGI was 22.6 µM in [7]; 5.27 µM in assay [8]; 19.2 µM in assay [9]; 12.4 µM in [10]; 13.7 µM in [11].
Consider `O=C1NN=C(c2c[nH]c3ccccc23)CC1NCc1ccccc1` (centres undefined), for which the TGI in [1], in assay [2], in assay [3], in assay [4], in assay [5] and in assay [6] was over 100 µM in each case. The TGI in assay [7], in assay [8], in [9], in assay [10] and in assay [11] was over 100 µM throughout.
Take `CC1OC(n2cc(F)c(=O)[nH]c2=O)C(O[Si](C)(C)C(C)(C)C)C1O[Si](C)(C)C(C)(C)C` (centres undefined): the TGI was 54.2 µM in assay [1]; 43.7 µM in [2]; 40.7 µM in assay [3]; 28.5 µM in assay [4]; 34.5 µM in assay [5]; over 100 µM in assay [6]. The TGI was determined as 31.1 µM in assay [7]; 35.5 µM in assay [8]; 31.3 µM in assay [9]; 27.1 µM in assay [10]; 26.9 µM in assay [11].
For `O=S1(=O)c2ccccc2NC(=S)N1c1ccccc1`, the TGI in assay [1], in assay [2], in assay [3], in assay [4], in assay [5] and in assay [6] was over 100 µM throughout. Further, the TGI in assay [7] was over 100 µM; in [8] it was over 100 µM; in [9], 48.3 µM; in assay [10], over 100 µM; in assay [11], over 100 µM.
In the case of `COc1cc(/C=C/C(=O)O)ccc1OS(=O)(=O)O`, the TGI in assay [1], in [2], in assay [3], in assay [4], in assay [5] and in [6] was over 100 µM each time. Moreover, the TGI in [7], in [8], in [9], in [10] and in [11] was over 100 µM each time.
With `COC(=O)/C=C\S/C(=C(/c1ccccc1)n1ccc(C(=O)OC)n1)c1ccccc1`, the TGI in [1] is over 100 µM; in assay [2], 50.4 µM; in assay [3], 48 µM; in [4], 43.9 µM; in [5] it was over 100 µM; in assay [6], over 100 µM. Moreover, the TGI was over 100 µM in assay [7]; 59.5 µM in assay [8]; 24 µM in [9]; over 100 µM in [10]; 38.2 µM in assay [11].
Consider `COP(=O)(CC(=O)C1OC(OCc2ccccc2)C(OCc2ccccc2)C(OCc2ccccc2)C1OCc1ccccc1)OC` (centres undefined), for which the TGI is over 100 µM in assay [1]; over 100 µM in [2]; over 100 µM in assay [3]; 94.5 µM in [4]; 27.9 µM in assay [5]; over 100 µM in assay [6]. The TGI in assay [7] was over 100 µM; in [8] it was 11 µM; in assay [9], 92.3 µM; in assay [10] it was 41.9 µM; in assay [11], over 100 µM.
